# From paper PMC12756182, “Co-option of an ancestral peptidase controls developmental patterning in multicellular cyanobacteria” (iScience, 2025)
# T1: HetR (Nostoc PCC 7120) (UniProt P27709)
# T1 sequence: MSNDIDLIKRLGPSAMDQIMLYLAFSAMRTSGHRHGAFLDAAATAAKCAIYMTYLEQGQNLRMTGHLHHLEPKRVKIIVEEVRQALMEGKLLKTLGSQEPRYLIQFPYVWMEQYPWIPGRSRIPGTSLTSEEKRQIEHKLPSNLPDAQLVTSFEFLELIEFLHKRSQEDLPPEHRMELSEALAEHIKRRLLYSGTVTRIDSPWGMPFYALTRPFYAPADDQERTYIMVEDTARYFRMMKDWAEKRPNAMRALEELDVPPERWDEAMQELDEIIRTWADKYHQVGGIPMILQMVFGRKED
# T2: HetR (Nostoc sp., UniProt P27709)
# T2 construct: made in house
# T2 sequence (P27709 1-299): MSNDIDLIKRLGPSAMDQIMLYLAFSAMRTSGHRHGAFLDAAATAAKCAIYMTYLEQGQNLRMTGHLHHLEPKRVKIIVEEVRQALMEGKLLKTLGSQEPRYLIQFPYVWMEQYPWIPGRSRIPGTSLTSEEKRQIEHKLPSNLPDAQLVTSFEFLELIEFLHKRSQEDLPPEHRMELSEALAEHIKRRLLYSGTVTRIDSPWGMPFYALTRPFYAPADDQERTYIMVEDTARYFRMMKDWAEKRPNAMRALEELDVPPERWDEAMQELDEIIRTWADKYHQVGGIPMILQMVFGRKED
# T3: HetR (Nostoc PCC 7120, UniProt P27709 1-299)
# T3 construct: HetR, master transcriptional regulator of heterocyst differentiation, Nostoc/Anabaena PCC 7120; purified protein used in ITC and EMSA; also called master transcriptional regulator HetR; source: purified (as previously described)
# T3 sequence (looked up): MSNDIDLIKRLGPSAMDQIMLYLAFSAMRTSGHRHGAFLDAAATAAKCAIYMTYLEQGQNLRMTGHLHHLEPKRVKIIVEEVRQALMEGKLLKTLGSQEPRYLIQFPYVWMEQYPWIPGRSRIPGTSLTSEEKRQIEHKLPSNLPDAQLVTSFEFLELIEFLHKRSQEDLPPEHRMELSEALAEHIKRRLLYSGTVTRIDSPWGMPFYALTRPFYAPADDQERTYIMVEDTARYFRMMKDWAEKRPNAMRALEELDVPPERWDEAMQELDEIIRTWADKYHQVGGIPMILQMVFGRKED
# How the values were obtained:
# HetR (Nostoc PCC 7120) = biological target: T1, HetR (Nostoc PCC 7120); assay: EMSA; conditions: EMSA: 10 mM Tris pH 8, 150 mM KCl, 500 nM EDTA, 0.1% Triton X-100, 12.5% glycerol, 1 mM DTT, 1 ug DiDC competitor (so in the source), 50 nM DNA, 4 C, 30 min in the …
# [1] = tested on: Nostoc heterocyst differentiation; conditions: cited from earlier work
# HetR [2] = biological target: T2, HetR; conditions: cited from earlier work
# Source text: Heterocyst differentiation involves four stages—induction, pattern formation, commitment, and morphogenesis—regulated by signaling cascades involving the master transcriptional regulator HetR.[10] Nitrogen starvation triggers 2-oxoglutarate (2-OG) accumulation, activating NtcA to upregulate hetR.[11]^,[12] Deletion of hetR prevents differentiation, while its overexpression induces contiguous heterocysts formation even under non-permissive conditions.[10] HetR initiates a negative feedback loop by activating patS expression.[13] The resulting 17-amino-acid product is processed into the signalin ...
# [3] = tested on: Nostoc PCC 7120 heterocyst differentiation; conditions: cited from earlier work
# Source text: While hetR is conserved across heterocyst-forming cyanobacteria, patS and hetN are not,[23] implying the existence of additional inhibitory factors. Recently, PatX, containing the HRGTGR hexapeptide, was identified as coextensive with HetR in filamentous cyanobacteria.[23]
# Alr1666 (PatP) = assay: LC-MS/MS identification of Alr1666-generated non-tryptic PatX peptides; type: biochemical, Nostoc PCC 7120; conditions: LC-MS/MS of excised 18–25 kDa gel region; three experimental replicates; with vs without Alr1666-V5
# Source text: Figure 5 Ex vivo cleavage assay of TrxA-PatXΔSS-MBP by the putative peptidase Alr1666 (A) Schematic of the TrxA-PatXΔSS-MBP fusion protein construct, shown before and after potential cleavage by Alr1666. (B) Immunoblot analysis of cleavage assays. Expression of trxA-patXΔSS-malE was induced with IPTG; expression of alr1666-V5 was induced with arabinose. The blot was probed with anti-TrxA antibodies (top panel) to detect the full-length TrxA-PatXΔSS-MBP fusion and any TrxA-PatX cleavage product, and with anti-V5 antibodies (bottom panel) to confirm Alr1666-V5 production. Lanes: 1, no inducer (negative control); 2, IPTG for 3 h; 3, IPTG for 1 h; 4, co-induction with IPTG and arabinose for 3 h; 5, sequential induction (IPTG for 1 h, then arabinose for 3 h). (C) Liquid chromatography-tandem mass spectrometry analysis of peptides from excised gel bands (see Figure S6A). […] Trx-PatXΔSS-MBP + Alr1666-V5: Experimental assay with Alr1666-V5. ∗0 values: No non-tryptic peptides were detected in control samples. […]
# The 18–25 kDa region was excised to identify PatX-cleavage peptides by mass spectrometry (Figure S6A). Because higher molecular-weight bands smear downward during SDS-PAGE, the excised slice also contains proteins from those upper regions, and they will be detected as well. […] They were uniquely detected in Alr1666-expressing samples ([…]). […]
# HetR / hetP promoter = assay: EMSA of HetR with the hetP promoter; type: biochemical, Nostoc PCC 7120; conditions: HetR 1 μM, hetP promoter 50 nM (6-FAM), peptide 1 μM, pH 8, 4°C, 30 minutes, one representative result
# Method: Heterocysts are indicated by white arrows. Time denotes hours post combined nitrogen starvation. Scale bars, 30 μm. […] Sector 1: wild-type. Sector 2: malE mutant. […] Red color indicates MBP periplasmic export.
# The hetP gene promoter (alr2818) was amplified by PCR using PhetP fw and PhetP rv primers, with the forward primer labeled at the 5′ end with 6-FAM. Purified HetR protein (as previously described),[3] was incubated with the hetP promoter (50 nM) in a buffer containing 10 mM Tris (pH 8), 150 mM KCl, 500 nM EDTA, 0.1% Triton X-100, 12.5% glycerol, 1 mM DTT, and 1 μg DiDC competitor at 4°C in the dark for 30 minutes. Electrophoresis was conducted at 250 V for 60 minutes, and DNA was visualized using the Typhoon FLA 9500.
# HetR [4] = biological target: T3, HetR; assay: ITC; PatX6 (200 μM, syringe) titrated into HetR (22 μM, cell), 25°C, PBS pH 7.4, one-site binding model, MicroCal PEAQ-ITC; conditions: both partners purified
molecule,measurement,setting,value
TGAGTTATACGCTATATCAATGGGGATTTTGAGCATTTTCTACTAGGTAATGAGGGGTTAGACCCCTCGCCTACTGTGCATTTGAGACTTTAAACCTACTAAGAGAATTTACCACTAAAT (double strand) [hetP promoter PCR fragment],binding,HetR (Nostoc PCC 7120),binds
"RGSGR [PatS5, signaling peptide PatS5 (RGSGR)]",effect of exogenous peptide on differentiation,[1],suppress differentiation
same,binding to HetR and effect on its DNA-binding function,HetR [2],binds to HetR to inhibit its DNA-binding function
"PatS: 17-amino-acid product of patS, processed into PatS5 or PatS6 (MKAIMLVNFCDERGSGR; UniProt O52748 1-17, looked up)",effect of overexpression on heterocyst differentiation,[3],inhibits heterocyst differentiation
"GPDIIFWAHDR [non-tryptic PatX cleavage peptide flanking HRGTGR, detected by mass spectrometry]",detection of non-tryptic cleavage peptide,Alr1666 (PatP),exclusively present in peptidase-producing strains
"AFSPSNSQNMISLK [non-tryptic PatX cleavage peptide flanking HRGTGR, detected by mass spectrometry]",detection of non-tryptic cleavage peptide,Alr1666 (PatP),exclusively present in peptidase-producing strains
"ERGSGR [PatS6, signaling peptide PatS6 (ERGSGR), positive control in EMSA]",effect of exogenous peptide on differentiation,[1],suppress differentiation
same,effect on HetR-hetP promoter interaction,HetR / hetP promoter,abolished this interaction
same,binding to HetR and effect on its DNA-binding function,HetR [2],binds to HetR to inhibit its DNA-binding function
HRGTGR (also called PatX6 hexapeptide; PatX-derived hexapeptide; source: synthetic peptide (Genecust)) [PatX-6 peptide (HRGTGR)],Kd,HetR [4],88 nM
"HetN: another inhibitor that maintains heterocyst patterning, containing the RGSGR pentapeptide (protein, UniProt P37694 1-287, looked up) Ketoacyl reductase HetN: MTTLTGKTVLLTGASRGLGVYIARALAKEQATVVCVSRSQSGLAQTCNAVKAAGGKAIAIPFDVRNTSQLSALVQQAQDIVGPIDVLINNAGIEINGTFANYSLAEIQSIFNTNLLAAMELTRLLLPSMMERGSGRIVNIASLAGKKGVAFNSVYSASKAGLIMWTDAMRQELVGTGVNISVVCPGYVSQTGMTVDTRVSAPKLAGISTPKSVANAVVKAIKNKTTEVIVNQNPITESLTKLMLAVGQISPTSVDRIYRWFGVVDFNQKRAENRVKDGYVAVESHRS",effect of overexpression on heterocyst differentiation,[3],inhibits heterocyst differentiation
